Like-named read-outs stand apart in the source and are kept apart here.
Assays:
[1] = Cytotoxicity of test compounds in vitro in MRC-5 cells (visual estimate of cell number); assay type: cell-based, human; details: human, mrc-5 cells; Table 2; MRC-5, 5 days at 37°C
Method: (§1) Cytotoxicity of test compounds in vitro: Subconfluent human lung fibroblast cells (MRC-5, American Type Culture Collection, Rockville, MD) in 24-well plates were treated with drugs diluted in E-MEM (Gibco BRL, Grand Island, NY) supplemented with 2% fetal bovine serum and antibiotics. After 5 days of incubation at 37°C, the cell monolayer was visually inspected under magnification and the concentration of drug which caused a 50% reduction in cell number was estimated.

[2] = test system: HIV-1
[3] = Cytotoxicity by the method of Hostetler et al. (HIV study); assay type: cell-based; details: human, ht4-6c cells; Table 6; cell line of the cytotoxicity test not stated
[4] = test system: HIV-1; assay: microbe, parasite or virus in culture; details: Human immunodeficiency virus 1
[5] = test system: HCMV
[6] = test system: HCMV; assay: microbe, parasite or virus in culture; details: Human betaherpesvirus 5, MRC5
[7] = test system: Humans with Osteoporosis; details: postmenopausal women, oral 0.1 to 100 mg/kg/day, two to three years; versus placebo
[8] = test system: human lung fibroblast cells (MRC-5); assay: Cytotoxicity of test compounds in vitro in MRC-5 cells (visual estimate of cell number); assay type: cell-based
Method: as §1

[9] = test system: Vero cells; details: monkey
[10] = test system: Variola Major, Bangladesh; assay: organism not typed; assay type: cell-based; details: read-out: EC50, µM Variola Major, Bangladesh
[11] = test system: Cowpox; assay: organism not typed; assay type: cell-based; details: read-out: EC50, µM Cowpox
[12] = test system: cowpox virus; assay: microbe, parasite or virus in culture; assay type: cell-based; details: for IC50: read-out: IC50 in cowpox infected cells
[13] = test system: HSV-1; assay: microbe, parasite or virus in culture; assay type: cell-based
[14] = test system: HFF Cells; details: human
[15] = test system: CEM; assay: Cytotoxicity in CEM cells; details: read-out: CEM, CC50; Table 1; rapidly dividing cells
[16] = test system: vaccinia virus; assay: microbe, parasite or virus in culture; assay type: cell-based; details: Orthopoxvirus vaccinia, HFF; for IC50: read-out: IC50 against vaccinia virus; for EC50: read-out: Vaccinia EC50, µM
[17] = test system: Vaccinia; assay: microbe, parasite or virus in culture; assay type: cell-based; details: read-out: EC50, µM Vaccinia
[18] = in vitro; details: monkey, vero cells
[19] = test system: Humans with Steroid-Induced Osteoporosis; assay: Stimulation of bone formation in humans with steroid-induced osteoporosis; assay type: in vivo; details: oral 0.1 to 100 mg/kg/day, one month to one year; versus placebo
[20] = test system: Ovariectomized Rats; details: subcutaneous 0 to 8 mg /kg/day, four to twelve weeks; versus ovariectomized controls
[21] = test system: MLO-Y4 osteocytic cells; details: pretreated 1 hour, then 6 hours with 10^-4 M dexamethasone; percentage of dead cells; p<0.05
[22] = test system: Calvarial cells; assay: Dexamethasone-induced apoptosis in calvarial cells (trypan blue uptake); assay type: cell-based, neonatal C57BL/6J mice; details: pretreated 1 hour, then 6 hours with 10^-4 dexamethasone; p=<0.05
[23] = test system: Variola Major, Yamada; assay type: cell-based; details: Table 4; Vero cells; average of 3 determinations
[24] = test system: Variola Minor, Garcia; assay type: cell-based; details: Table 4; Vero cells; average of 3 determinations
[25] = Table 7, assessed as described in Example 17, 7200 min
[26] = Table 4, Vero cells, average of 3 determinations
[27] = Cowpox virus, HFF, read-out: Cowpox, EC50, µM
[28] = Table 1, against HCMV, CC50 in CEM cells

CCCCCCCCCCCCCCCCOCCCOP(=O)(O)COCCn1cnc2c(N)ncnc21 [HDP-Adefovir]
CC50 at 120 h [1]: 6.5 µM | EC50,µM [2]: more active and selective than adefovir | Selectivity Index [2]: 813 | CC50 [3]: 6.5 µM | EC50 [4]: 0.008 µM | Selectivity Index [5]: 65 | EC50 [6]: 0.1 µM

CCCCCCCCCCCCCCCCCCOCCCOP(=O)(O)C(O)(CCCN)P(=O)(O)O (stereo not drawn) [1-O-octadecyloxypropyl alendronate, 1-O-octadecyloxypropyl-alendronate]
fractures [7]: fewer fractures | rate of reduction in bone density [7]: a lesser rate of reduction in bone density than the placebo group

CCCCCCCCCCCCCCCCOCCCOP1(=O)COC(Cn2ccc(N)nc2=O)CO1 (stereo not drawn) [HDP-cCDV, 1-O-hexadecylpropanediol-3-cyclic CDV]
CC50 ([8]; Table 2, MRC-5, 5 days at 37°C): 320 µM | CC50 [8, 25]: 320 µM | CC50 [9]: > 0.1 µM | EC50 [10, 26]: > 0.01 µM | EC50 [11, 26]: < 0.03 µM | EC50 ([12]; Table 3, preliminary, HFF cells, CPE reduction, read-out: Cowpox, EC50): < 0.03 µM | IC50 ([12]; Table 3): < 0.03 µM | EC50 [5]: 0.3 nM | EC50 ([5]; read-out: HCMV EC50): 0.5 nM | EC50 ([13]; read-out: EC50): 0.03 µM | CC50 [14]: > 100 µM | CC50 [15]: 30 µM

Nc1ccn(C[C@@H](CO)OCP(=O)(O)O)c(=O)n1 [CDV, cidofovir]
CC50 ([8]; Table 2, MRC-5, 5 days at 37°C): > 1000 µM | CC50 [8, 25]: > 1000 µM | IC50 [16]: 1.8 µM | EC50 [16]: 1.8 µM | EC50 ([17]; Orthopoxvirus vaccinia, Vero): 2.2 µM | CC50 [18]: > 100 µM | EC50 ([10]; Vero): 100 µM | EC50 ([11]; Vero): 3.8 µM | EC50 [12, 27]: 2.1 µM | IC50 ([12]; Cowpox virus, HFF): 2.1 µM | Selectivity Index [5, 28]: 1,900 | EC50 [6]: 0.46 µM | EC50 ([13]; Human alphaherpesvirus 1, MRC5): 1.2 µM | CC50 [14]: 89.8 µM | CC50 [15]: 857 µM

CCCCCCCCCCCCCCCCCCOCCOP(=O)(O)COC(CO)Cn1ccc(N)nc1=O (stereo not drawn) [1-O-octadecylethanediol-2-CDV]
CC50 ([8]; Table 2, MRC-5, 5 days at 37°C): 210 µM | CC50 [8, 25]: 210 µM | EC50 ([13]; read-out: EC50): 0.002 µM

1-O-octadecyloxypropyl-amino-olpadronate
bone density [19]: bone density is increased | fractures [19]: fractures are decreased

CCCCCCCCCCCCCCCCCCOCCOP1(=O)COC(Cn2ccc(N)nc2=O)CO1 (stereo not drawn) [1-O-octadecylethanediol-2-cCDV]
CC50 ([8]; Table 2, MRC-5, 5 days at 37°C): 320 µM | CC50 [8, 25]: 320 µM | EC50 [5]: 0.3 nM | EC50 ([13]; read-out: EC50): 0.008 µM

CCCCCCCCCCCCCCCCOCCCOP(=O)(O)C(O)(CCCN)P(=O)(O)O (stereo not drawn) [HDP-alendronate, 1-O-hexadecylpropanediol-3-alendronate]
bone mass loss (ash weight of the femora) [20]: less bone mass loss than the ovariectomized controls | concentration at which dexamethasone-induced apoptosis is inhibited [21]: 10^-8 to 10^-5 M | concentration at which the dexamethasone-induced increase in % dead cells is abolished [22]: ≥ 10^-8

CCCCCCCCCCCCCCCCCCOCCCOP1(=O)COC(Cn2ccc(N)nc2=O)CO1 (stereo not drawn) [1-O-octadecylpropanediol-3-cCDV]
CC50 ([8]; Table 2, MRC-5, 5 days at 37°C): 320 µM | CC50 [8, 25]: 320 µM | EC50 [5]: 0.3 nM | EC50 ([13]; read-out: EC50): 0.33 µM

CCCCCCCCCCCCCCCCCCOCCCOP(=O)(O)CO[C@H](CO)Cn1ccc(N)nc1=O [1-O-octadecylpropanediol-3-CDV]
CC50 ([8]; Table 2, MRC-5, 5 days at 37°C): 32 µM | CC50 [8, 25]: 32 µM | EC50 [5]: 0.03 nM | EC50 ([13]; read-out: EC50): 0.003 µM

CCCCCCCCCCCCCCCCOCCCOP(=O)(O)CO[C@H](CO)Cn1ccc(N)nc1=O [HDP-CDV]
CC50 ([8]; Table 2, MRC-5, 5 days at 37°C): 10 µM | CC50 [8, 25]: 10 µM | EC50 [17, 26]: < 0.03 µM | CC50 [9]: > 0.1 µM | EC50 [10, 26]: 0.0015 µM | EC50 [11, 26]: < 0.03 µM | EC50 [5]: 0.002 nM | EC50 [23]: 0.0015 µM | EC50 [24]: 0.0006 µM

CCCCCCCCCCCCCCCCOP1(=O)COC(Cn2ccc(N)nc2=O)CO1 (stereo not drawn) [Hexadecyl-cCDV]
CC50 ([8]; Table 2, MRC-5, 5 days at 37°C): 6.5 µM | EC50 [5]: 40 nM

Nc1ccn(C[C@H]2COP(=O)(O)CO2)c(=O)n1 [cCDV, cyclic cidofovir]
CC50 ([8]; Table 2, MRC-5, 5 days at 37°C): > 1000 µM | CC50 [8, 25]: > 1000 µM | IC50 [16]: 0.97 µM | EC50 [16]: 0.97 µM | CC50 [9]: > 100 µM | EC50 ([10]; Vero): 100 µM | EC50 [12, 27]: 0.72 µM | IC50 ([12]; Cowpox virus, HFF): 0.72 µM | Selectivity Index [5, 28]: >2,100 | EC50 [6]: 0.47 µM | EC50 ([13]; Human alphaherpesvirus 1, MRC5): 2.1 µM | CC50 [14]: > 100 µM | CC50 [15]: > 1000 µM

1-O-octadecyl-sn-glyceryl-3-adefovir [1-O-octadecyl-sn-glycero-3-ADV]
EC50 [5]: 210 nM

— patent EP1914237B1 (priority 1999, dated 2001)
